#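 How tested: cells in 96-well plates exposed to compound for 48 hours at five concentrations. The concentration for 50% growth inhibition is given as GI50.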 Active and inactive are the calls of the source. Rule as the data show it: active = GI50 up to about 1.1 µM and inactive = higher.
# What was measured:
# Test in all cases: NCI anticancer screen, dose series, 48 h
# UACC-257 = test system: UACC-257
# DLD-1 = test system: DLD-1
# SNB-78 = test system: SNB-78
# SN12C = test system: SN12C
# LXFL 529 = test system: LXFL 529
# HCC 2998 = test system: HCC 2998
# SK-MEL-2 = test system: SK-MEL-2
# OVCAR-8 = test system: OVCAR-8
# SF-539 = test system: SF-539
# K562 = test system: K562
# A549 = test system: A549
# RXF 393 = test system: RXF 393
# DMS-114 = test system: DMS-114
# IGROV-1 = test system: IGROV-1
# HOP-62 = test system: HOP-62
# LOX IMVI = test system: LOX IMVI
# ACHN = test system: ACHN
# CCRF-CEM = test system: CCRF-CEM
# Malme-3M = test system: Malme-3M
# SR = test system: SR
# SF-295 = test system: SF-295
# A498 = test system: A498
# KM12 = test system: KM12
# UO-31 = test system: UO-31
# CAKI-1 = test system: CAKI-1
# NCI-H23 = test system: NCI-H23
# 786-0 = test system: 786-0
# HT-29 = test system: HT-29
# OVCAR-4 = test system: OVCAR-4
# SK-OV-3 = test system: SK-OV-3
# U-251 = test system: U-251
# SK-MEL-28 = test system: SK-MEL-28
# COLO 205 = test system: COLO 205
# OVCAR-3 = test system: OVCAR-3
# HCT-116 = test system: HCT-116
# HOP-92 = test system: HOP-92
# NCI-H522 = test system: NCI-H522
# NCI-H460 = test system: NCI-H460
# HCT-15 = test system: HCT-15
# SW-620 = test system: SW-620
# OVCAR-5 = test system: OVCAR-5
# M14 = test system: M14
# SK-MEL-5 = test system: SK-MEL-5
# RPMI-8226 = test system: RPMI-8226
# SF-268 = test system: SF-268
# MOLT-4 = test system: MOLT-4
# SNB-19 = test system: SNB-19
# UACC-62 = test system: UACC-62
# NCI-H226 = test system: NCI-H226
# EKVX = test system: EKVX
# TK-10 = test system: TK-10
# MDA-MB-435 = test system: MDA-MB-435
# SNB-75 = test system: SNB-75
# NCI/ADR-RES = test system: NCI/ADR-RES
# MCF7 = test system: MCF7
# HL-60 = test system: HL-60
# Hs-578T = test system: Hs-578T
# T47D = test system: T47D
# MDA-N = test system: MDA-N
# PC-3 = test system: PC-3
# DU-145 = test system: DU-145
# BT-549 = test system: BT-549
# MDA-MB-231 = test system: MDA-MB-231
# KM-20L2 = test system: KM-20L2
smiles,measurement,setting,value
O=C(Nc1cccc([N+](=O)[O-])c1)/C(=N\NC(=O)c1ccncc1)c1nc2ccc([N+](=O)[O-])cc2nc1O,GI50,UACC-257,46.7 µM (inactive)
same,GI50,DLD-1,> 10 µM (inactive)
same,GI50,SNB-78,> 100 µM (inactive)
same,GI50,SN12C,> 100 µM (inactive)
same,GI50,LXFL 529,35.6 µM (inactive)
same,GI50,HCC 2998,35.4 µM (inactive)
same,GI50,SK-MEL-2,> 100 µM (inactive)
same,GI50,OVCAR-8,50.1 µM (inactive)
same,GI50,SF-539,32.8 µM (inactive)
same,GI50,K562,21.5 µM (inactive)
same,GI50,A549,39.5 µM (inactive)
same,GI50,RXF 393,60 µM (inactive)
same,GI50,DMS-114,13.9 µM (inactive)
same,GI50,IGROV-1,> 100 µM (inactive)
same,GI50,HOP-62,70 µM (inactive)
same,GI50,LOX IMVI,27.6 µM (inactive)
same,GI50,ACHN,19.7 µM (inactive)
same,GI50,CCRF-CEM,14.7 µM (inactive)
same,GI50,Malme-3M,> 100 µM (inactive)
same,GI50,SR,42.7 µM (inactive)
same,GI50,SF-295,33.8 µM (inactive)
same,GI50,A498,> 100 µM (inactive)
same,GI50,KM12,42.2 µM (inactive)
same,GI50,UO-31,21.9 µM (inactive)
same,GI50,CAKI-1,38.6 µM (inactive)
same,GI50,NCI-H23,68.1 µM (inactive)
same,GI50,786-0,> 100 µM (inactive)
same,GI50,HT-29,74.1 µM (inactive)
same,GI50,OVCAR-4,> 100 µM (inactive)
same,GI50,SK-OV-3,> 100 µM (inactive)
same,GI50,U-251,71.3 µM (inactive)
same,GI50,SK-MEL-28,29.2 µM (inactive)
same,GI50,COLO 205,> 100 µM (inactive)
same,GI50,OVCAR-3,> 100 µM (inactive)
same,GI50,HCT-116,84.3 µM (inactive)
same,GI50,HOP-92,12.4 µM (inactive)
same,GI50,NCI-H522,8.59 µM (inactive)
same,GI50,NCI-H460,54 µM (inactive)
same,GI50,HCT-15,35 µM
same,GI50,SW-620,77.3 µM (inactive)
same,GI50,OVCAR-5,77.3 µM (inactive)
same,GI50,M14,> 100 µM (inactive)
same,GI50,SK-MEL-5,38 µM (inactive)
same,GI50,RPMI-8226,49.4 µM (inactive)
same,GI50,SF-268,40.7 µM (inactive)
same,GI50,MOLT-4,46.9 µM (inactive)
same,GI50,SNB-19,> 100 µM (inactive)
same,GI50,UACC-62,58.7 µM (inactive)
same,GI50,NCI-H226,42.4 µM (inactive)
same,GI50,EKVX,38 µM (inactive)
COc1cc(Cc2c(C)cc(OC)c3[nH]c4ccccc4c23)cc2c1[nH]c1ccccc12,GI50,SNB-78,5.79 µM (inactive)
same,GI50,OVCAR-8,4.57 µM (inactive)
same,GI50,DMS-114,10.5 µM (inactive)
same,GI50,OVCAR-3,5.42 µM (inactive)
same,GI50,OVCAR-5,4.99 µM (inactive)
same,GI50,RPMI-8226,9.95 µM (inactive)
same,GI50,SNB-19,8.85 µM (inactive)
O=C1C(/N=N/c2ccc(-c3nc4ccccc4[nH]3)cc2)NC(=S)N1c1ccccc1 (stereo not given),GI50,UACC-257,> 100 µM (inactive)
same,GI50,TK-10,> 100 µM (inactive)
same,GI50,SN12C,> 100 µM (inactive)
same,GI50,HCC 2998,21.2 µM (inactive)
same,GI50,SK-MEL-2,> 100 µM (inactive)
same,GI50,OVCAR-8,47.2 µM (inactive)
same,GI50,SF-539,51.9 µM (inactive)
same,GI50,K562,17.1 µM (inactive)
same,GI50,A549,53.7 µM (inactive)
same,GI50,RXF 393,13.4 µM (inactive)
same,GI50,MDA-MB-435,67.3 µM (inactive)
same,GI50,SNB-75,93.1 µM (inactive)
same,GI50,IGROV-1,40.2 µM (inactive)
same,GI50,HOP-62,> 100 µM (inactive)
same,GI50,LOX IMVI,19.8 µM (inactive)
same,GI50,NCI/ADR-RES,> 100 µM (inactive)
same,GI50,ACHN,> 100 µM (inactive)
same,GI50,CCRF-CEM,10.7 µM (inactive)
same,GI50,MCF7,10.5 µM (inactive)
same,GI50,Malme-3M,> 100 µM (inactive)
same,GI50,SR,0.671 µM (active)
same,GI50,SF-295,91.6 µM (inactive)
same,GI50,HL-60,> 100 µM (inactive)
same,GI50,A498,> 100 µM (inactive)
same,GI50,KM12,18 µM (inactive)
same,GI50,UO-31,> 100 µM (inactive)
same,GI50,Hs-578T,> 100 µM (inactive)
same,GI50,CAKI-1,> 100 µM (inactive)
same,GI50,NCI-H23,57.4 µM (inactive)
same,GI50,786-0,18.9 µM (inactive)
same,GI50,HT-29,31.8 µM (inactive)
same,GI50,OVCAR-4,61.9 µM (inactive)
same,GI50,SK-OV-3,> 100 µM (inactive)
same,GI50,U-251,33 µM (inactive)
same,GI50,SK-MEL-28,> 100 µM (inactive)
same,GI50,COLO 205,73.6 µM (inactive)
same,GI50,OVCAR-3,> 100 µM (inactive)
same,GI50,HCT-116,36.8 µM (inactive)
same,GI50,HOP-92,> 100 µM (inactive)
same,GI50,NCI-H522,48.6 µM (inactive)
same,GI50,NCI-H460,56.9 µM (inactive)
same,GI50,T47D,18.8 µM (inactive)
same,GI50,HCT-15,18.2 µM
same,GI50,SW-620,28.1 µM (inactive)
same,GI50,OVCAR-5,> 100 µM (inactive)
same,GI50,MDA-N,39.5 µM (inactive)
same,GI50,M14,> 100 µM (inactive)
same,GI50,SK-MEL-5,> 100 µM (inactive)
same,GI50,RPMI-8226,22.1 µM (inactive)
same,GI50,SF-268,> 100 µM (inactive)
same,GI50,PC-3,98.2 µM (inactive)
same,GI50,DU-145,28.6 µM (inactive)
same,GI50,MOLT-4,18.9 µM (inactive)
same,GI50,SNB-19,> 100 µM (inactive)
same,GI50,UACC-62,> 100 µM (inactive)
same,GI50,NCI-H226,> 100 µM (inactive)
same,GI50,BT-549,> 100 µM (inactive)
same,GI50,EKVX,> 100 µM (inactive)
same,GI50,MDA-MB-231,> 100 µM (inactive)
COC(=O)/C(=N\NC(C)(C)C)C(C(=O)C(=O)Nc1cc(C)ccc1C)c1nc2ccccc2nc1O (stereo not given),GI50,UACC-257,> 100 µM (inactive)
same,GI50,DLD-1,> 100 µM (inactive)
same,GI50,TK-10,> 100 µM (inactive)
same,GI50,SN12C,> 100 µM (inactive)
same,GI50,OVCAR-8,> 100 µM (inactive)
same,GI50,SF-539,> 100 µM (inactive)
same,GI50,K562,> 100 µM (inactive)
same,GI50,SNB-75,> 100 µM (inactive)
same,GI50,IGROV-1,> 100 µM (inactive)
same,GI50,HOP-62,> 100 µM (inactive)
same,GI50,LOX IMVI,> 100 µM (inactive)
same,GI50,ACHN,> 100 µM (inactive)
same,GI50,CCRF-CEM,> 100 µM (inactive)
same,GI50,SR,> 100 µM (inactive)
same,GI50,SF-295,> 100 µM (inactive)
same,GI50,HL-60,> 100 µM (inactive)
same,GI50,A498,> 100 µM (inactive)
same,GI50,KM12,> 100 µM (inactive)
same,GI50,CAKI-1,> 100 µM (inactive)
same,GI50,NCI-H23,> 100 µM (inactive)
same,GI50,HT-29,> 100 µM (inactive)
same,GI50,OVCAR-4,> 100 µM (inactive)
same,GI50,COLO 205,> 100 µM (inactive)
same,GI50,HOP-92,> 100 µM (inactive)
same,GI50,SW-620,> 100 µM (inactive)
same,GI50,OVCAR-5,> 100 µM (inactive)
same,GI50,SK-MEL-5,> 100 µM (inactive)
same,GI50,RPMI-8226,> 100 µM (inactive)
same,GI50,MOLT-4,> 100 µM (inactive)
same,GI50,SNB-19,> 100 µM (inactive)
same,GI50,UACC-62,> 100 µM (inactive)
same,GI50,NCI-H226,> 100 µM (inactive)
same,GI50,EKVX,> 100 µM (inactive)
same,GI50,KM-20L2,> 100 µM (inactive)

# — ChEMBL document CHEMBL1201862, “PubChem BioAssay data set” (2004)
